Experiments:
[1] = Test for nephrotoxicity; type: in vivo, male ICR mice; settings: 18.8 mg/kg i.p. once
Procedure: 4. Test for nephrotoxicity
The compounds of the present invention were dissolved or suspended in 0.5% CMC solution(in water) and were administered intraperitoneally one time to 8-week-old male ICR mice weighing 30±3 g. Each treatment and control groups consisted of six mice.
The administration amount of the test compound was 1.5 times the optimum dose obtained in Table 2, or more. On days 1, 4 and 8 after administration, their blood was collected under ether anesthesia for measurement of blood urea nitrogen concentration (BUN value) and creatinine concentration.
A pair of kidneys were taken and, after immediate weighing, were stored in a 10% neutral buffered formalin solution. The body weight ratio shown in Table 5 is a ratio of the body weight measured on days 1, 4 and 8 from the administration of the compound to the body weight measured on the administration day.

[2] = system: murine leukemia L1210 cells; assay: Growth inhibition test on cultured murine leukemia L1210 cells; type: cell-based; settings: 48 hours, 37° C., Trypan blue viability
In short: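 L1210 cells (1×10^5) exposed to graded compound concentrations in RPMI 1640 with 10% fetal calf serum, 37° C, 5% CO2, 48 h. Viability by 0.17% Trypan blue staining, relative to untreated control cells.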

[3] = system: ICR mice; assay: Acute toxicity test; type: in vivo; set-up: Lethality: unit not given here; settings: for Lethality: 10080 min
In short: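 Male and female 7-week-old ICR mice, 6 per group, dosed intraperitoneally. Signs and survival followed for 7 days, with autopsy of animals that died.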

[4] = system: murine leukemia L1210; assay: Antitumor activity test on murine leukemia L1210 in vivo; set-up: species or system male BDF1 mice; settings: days 1, 5, 9
In short: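 Intraperitoneal L1210 model: 1×10^6 cells inoculated i.p. into 6-week-old male BDF1 mice (21±3 g) on day 0, seven per group. Compounds in 0.5% CMC given i.p. on days 1, 5 and 9; vehicle-only controls. T/C % from mean survival time of treated over control.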

[5] = Test for water solubility; type: physicochemical; settings: 20° C.
Source text: 3. Test for water solubility
A standard plot of UV absorbance(220 nm) vs. concentration was made; and employed to determine water-solubility.
The mixture was then passed through a 0.45 micron disposable membrane filter before dilution and UV measurement.

[6] = system: human cancers; settings: testicular, ovarian, bladder, head and neck cancer; cited from earlier work

## CCC1O[C@H](CN)[C@@H](CN)O1.O=C1C[O][Pt][O]1 [Example 6, (glycolato-O,O')[(4R,5R)-4,5-bis(aminomethyl)-2-ethyl-1,3-dioxolane]platinum(II)]
[1]
  BUN, 1st day: 22.41 mg/100 ml
  BUN, 4th day: 22.67 mg/100 ml
  BUN, 8th day: 30.41 mg/100 ml
[2]
  IC50 (concentration required for 50% inhibition of growth): 0.22 µg/mL
[3]; female, 25.0 mg/kg i.p.
  Number of dead mice for 7 days: 0/6
  Number of dead mice, 1st day: 0/6
[3]; female, 32.5 mg/kg i.p.
  Number of dead mice for 7 days: 1/6
  Number of dead mice, 1st day: 0/6
  Number of dead mice, 3rd day: 1/6
  Lethality: 16.7
[3]; female, 42.3 mg/kg i.p.
  Number of dead mice for 7 days: 3/6
  Number of dead mice, 1st day: 0/6
  Number of dead mice, 3rd day: 1/6
  Number of dead mice, 4th day: 1/5
  Number of dead mice, 5th day: 1/4
  Lethality: 50.0
[3]; female, 55.0 mg/kg i.p.
  Number of dead mice for 7 days: 5/6
  Number of dead mice, 1st day: 0/6
  Number of dead mice, 3rd day: 4/6
  Number of dead mice, 4th day: 1/2
  Lethality: 83.3
[3]; female, 71.4 mg/kg i.p.
  Number of dead mice for 7 days: 6/6
  Number of dead mice, 1st day: 0/6
  Number of dead mice, 3rd day: 4/6
  Number of dead mice, 4th day: 2/2
  Lethality: 100.0
[3]; male, 25.0 mg/kg i.p.
  Number of dead mice for 7 days: 0/6
  Number of dead mice, 1st day: 0/6
[3]; male, 32.5 mg/kg i.p.
  Number of dead mice for 7 days: 0/6
  Number of dead mice, 1st day: 0/6
  Number of dead mice, 3rd day: 1/6
  Lethality: 16.7
[3]; male, 42.3 mg/kg i.p.
  Number of dead mice for 7 days: 4/6
  Number of dead mice, 1st day: 0/6
  Number of dead mice, 3rd day: 1/6
  Number of dead mice, 4th day: 2/5
  Number of dead mice, 5th day: 1/3
  Lethality: 66.7
[3]; male, 55.0 mg/kg i.p.
  Number of dead mice for 7 days: 6/6
  Number of dead mice, 1st day: 0/6
  Number of dead mice, 3rd day: 4/6
  Number of dead mice, 4th day: 1/2
  Number of dead mice, 5th day: 1/1
  Lethality: 100.0
[3]; male, 71.4 mg/kg i.p.
  Number of dead mice for 7 days: 6/6
  Number of dead mice, 1st day: 0/6
  Number of dead mice, 3rd day: 4/6
  Number of dead mice, 4th day: 2/2
  Lethality: 100.0
[4]; 3.1 mg/kg i.p.
  T/C (%): 113%
[4]; 6.2 mg/kg i.p.
  T/C (%): 162%
[4]; 12.5 mg/kg i.p.
  T/C (%): 205%
[4]; 25 mg/kg i.p.
  T/C (%): toxic
[4]; 50 mg/kg i.p.
  T/C (%): toxic
[5]
  Solubility in water: > 50 mg/mL

## N.N.[Cl][Pt][Cl] [cisplatin, cis-dichlorodiammineplatinum(II), reference compound]
[2]
  IC50 (concentration required for 50% inhibition of growth): 0.06 µg/mL
[4]; 1.5 mg/kg i.p.
  T/C (%): 142%
[4]; 3.1 mg/kg i.p.
  T/C (%): 167%
[4]; 6.2 mg/kg i.p.
  T/C (%): 82%
[4]; 12.5 mg/kg i.p.
  T/C (%): toxic
[4]; 25 mg/kg i.p.
  T/C (%): toxic
[6]
  effectiveness on human cancers: effective on a variety of human cancers

Source: US5395947A, “Platinum(II) complex and processes for preparing the same” (Sunkyong Industries, Ltd., priority 1991, dated 1995)
